In PMC12040169 (PLOS Biology, 2025):

Assay: in vitro
Details: human, hela cells, % viability

In order of falling viability at 28.5 h, 10 µM:
1. CN(C)C(=O)c1cc(-c2ccco2)cnc1NS(C)(=O)=O [CBK076490]  116%
2. CCOC(=O)c1sc(-c2c(Cl)cc(C(F)(F)F)cc2Cl)nc1O [CBK078547]  114%
3. CN(c1ncc(Br)cc1C(=O)NC1CCCCC1)S(C)(=O)=O [CBK076531]  111%
4. NS(=O)(=O)c1ccc(CCNC(=O)c2ccc(-c3ccccc3)nc2NCCc2ccccn2)cc1 [CBK076616]  111%
5. CCC1CCCCN1C(=O)c1ccc(C(F)(F)F)cc1 (centres unmarked) [CBK081165]  107%
6. CSc1ccccc1CNC(=O)c1cc(Br)cnc1N(C)C(C)=O [CBK076478]  106%
7. Cc1ccc(C(=O)NCC2COc3ccccc3O2)c(N2CCOCC2)n1 (centres unmarked) [CBK076519]  106%
8. O=C(O)c1cc(Cl)c2c(c1)[C@@H]1C=CC[C@@H]1[C@H](c1cccc(Br)c1)N2 [CBK077927]  106%
9. COc1ccccc1CNc1ccc(C(=O)O)cc1 [CBK078187]  106%
10. COC(=O)c1cc(NS(=O)(=O)c2cc(Cl)ccc2Cl)cc(C(=O)OC)c1 [CBK077853]  105%
11. O=C(Nc1ccccc1C(=O)O)c1ccc(-c2ccc(Cl)cc2Cl)o1 [CBK078453]  105%
12. O=C(O)CCCc1[nH]nc(O)c1Cc1c(Cl)cccc1Cl [CBK081137]  105%
13. COc1ccc(-c2ccc(C(=O)NCCN3CCOCC3)c(N(C)C(C)=O)n2)cc1 [CBK076545]  102%
14. O=C(Nc1ccc2c(c1)OCO2)c1ccc(-c2ccccc2)nc1NCCc1ccccn1 [CBK076574]  102%
15. CCC1CCCCN1C(=O)c1cc(C)nc(Cl)c1 (centres unmarked) [CBK076748]  102%
16. O=C(O)CCCCCNc1ncnc2sc3c(c12)CCCC3 [CBK077446]  102%
17. CCCc1[nH]nc(O)c1CCc1ccc(OC)cc1 [CBK081128]  102%
18. O=C(NC1CCCCC1)c1ccc(-c2ccccc2)nc1NCCc1ccccn1 [CBK076553]  101%
19. COc1ccc2[nH]cc(CCNC(=O)c3ccc(-c4cccc(N(C)C)c4)nc3N(C)C(C)=O)c2c1 [CBK076589]  101%
20. COc1ccc2[nH]cc(CCNC(=O)c3cc(-c4cccc(NC(C)=O)c4)cnc3N(C)S(C)(=O)=O)c2c1 [CBK076599]  101%
21. CC(=O)N(C)c1nc(-c2cccc(N(C)C)c2)ccc1C(=O)NCc1cccnc1 [CBK076639]  101%
22. O=C(NC1CCCCC1)c1cc(Br)cnc1NCCCn1ccnc1 [CBK076494]  99.7%
23. Cn1c2c(c3ccccc31)CCOC21CCNCC1 [CBK081142]  99.3%
24. COc1ccc(-c2ccc(C(=O)N(C)C)c(N(C)C(C)=O)n2)cc1 [CBK076500]  99.1%
25. CN(c1ncc(-c2ccccc2)cc1C(=O)NCc1cccnc1)S(C)(=O)=O [CBK076507]  98.9%
26. O=C(O)c1cc(-c2ccc(/C=C3\NC(=O)N(Cc4ccccc4)C3=O)o2)ccc1Cl [CBK078117]  98.9%
27. CC(=O)c1ccccc1-c1ccc(C(=O)NCCc2ccccn2)c(NCC2CC2)n1 [CBK076580]  98.8%
28. CC(=O)N(C)c1nc(-c2cccc(N(C)C)c2)ccc1C(=O)Nc1ccc(C(F)(F)F)cc1 [CBK076623]  98.5%
29. CCN1CCCC1CNC(=O)c1ccc(-c2ccc(OC)cc2)nc1N(C)C(C)=O (centres unmarked) [CBK076491]  98.3%
30. Nc1cc2cccnc2c(-c2ccc3c(c2)CCO3)n1 [CBK081173]  98%
31. CC(=O)c1ccc(-c2ccc(C(=O)NCC3COc4ccccc4O3)c(NCc3cccnc3)n2)s1 (centres unmarked) [CBK076608]  97.9%
32. CN1CCN(c2ccc(NS(=O)(=O)c3ccc(Cl)cc3)cc2)CC1 [CBK076932]  97.9%
33. Cc1ccc2c(c1)CCN(S(C)(=O)=O)C21CCN(CCCOc2ccccc2)CC1 [CBK081066]  96.8%
34. CS(=O)(=O)Nc1ncc(Br)cc1C(=O)Nc1ccc(C(F)(F)F)cc1 [CBK076485]  96.7%
35. CSc1ccccc1CNC(=O)c1cc(Br)cnc1N(C)S(C)(=O)=O [CBK076529]  96.7%
36. C=CCOc1ccc(Cl)cc1CNc1cccc(C(=O)O)c1 [CBK078460]  96.6%
37. CN(C)CCN(C)C(=O)c1cc(Br)cnc1N(C)S(C)(=O)=O [CBK076476]  96.2%
38. CC(=O)N(C)c1ncc(Br)cc1C(=O)NCc1nc2ccccc2[nH]1 [CBK076522]  95.9%
39. O=C(NCC1COc2ccccc2O1)c1ccc(-c2ccccc2)nc1NCCc1ccccn1 (centres unmarked) [CBK076554]  95.9%
40. CN1C[C@H](CNC(=O)Nc2ccc(F)c(F)c2)[C@@H](c2ccc(Cl)c(Cl)c2)C1 [CBK076770]  95.7%
41. O=C(O)C1CCN(c2ncnc3scc(-c4ccccc4)c23)CC1 [CBK076784]  95.6%
42. COc1ccc(OCCNC(=O)c2ccc(-c3ccc(C(C)=O)s3)nc2N(C)C(C)=O)cc1 [CBK076576]  95.5%
43. CCCc1[nH]nc(O)c1CCc1ccc(OC)cc1OC [CBK081123]  95.5%
44. COc1ccc([C@@]23CC[C@@H](NC(=O)c4ccc(SC(F)(F)F)cc4)C[C@@H]2N(C)CC3)cc1OC [CBK076654T]  94.9%
45. C=C(C)CNC(=O)c1cc(Br)cnc1N(C)S(C)(=O)=O [CBK076498]  94.6%
46. O=C(O)CCC(=O)Nc1ccc(N2CCN(CCO)CC2)cc1 [CBK078486]  94.5%
47. c1cncc(COc2cncc(OC3CCNC3)n2)c1 (centres unmarked) [CBK077419T]  94.3%
48. C/C(=N\OCC(=O)N(Cc1ccccc1)c1ccccc1C(=O)O)c1cccs1 [CBK077414]  94.2%
49. CN(C)CCN(C)C(=O)c1ccc(-c2cccc(C(=O)NCCO)c2)nc1NCC1CC1 [CBK076603]  94%
50. CC(=O)c1ccccc1-c1cnc(N(C)S(C)(=O)=O)c(C(=O)NCCc2ccccc2)c1 [CBK076516]  93.9%
51. C=C(C)CNC(=O)c1cc(-c2cccc(NC(C)=O)c2)cnc1N(C)S(C)(=O)=O [CBK076622]  93.9%
52. N=C1S/C(=C/c2ccc(-c3ccccc3C(=O)O)o2)C(=O)N1c1nccs1 [CBK077624]  93.9%
53. CN(C)CCN(C)C(=O)c1cc(Br)cnc1N1CCN(C(=O)c2ccco2)CC1 [CBK076514]  93.8%
54. COc1cccc(-c2ccc(C(=O)Nc3ccc4c(c3)OCO4)c(N3CCOCC3)n2)c1 [CBK076509]  93.5%
55. CCN1CCCC1CNC(=O)c1cc(Br)cnc1N(C)S(C)(=O)=O (centres unmarked) [CBK076520]  93.5%
56. CC(=O)N(C)c1ncc(Br)cc1C(=O)NCc1ccc2c(c1)CCO2 [CBK076544]  93.5%
57. CN(c1ncc(Br)cc1C(=O)Nc1ccc(C(F)(F)F)cc1)S(C)(=O)=O [CBK076542]  93.3%
58. CN1CCN(C(=O)c2ccc(-c3ccccc3)nc2NCCc2ccccn2)CC1 [CBK076550]  93.3%
59. COc1ccccc1-c1nnc(SC)n1-c1ccc(C)cc1 [CBK076670]  93.2%
60. COc1cc(NC(=O)N[C@@H]2CN(C)C[C@H]2c2ccc(OC)c(OC)c2)cc(OC)c1 [CBK081112]  93%
61. COc1ccc(OCCNC(=O)c2ccc(-c3cccc(N(C)C)c3)nc2N(C)C(C)=O)cc1 [CBK076587]  92.8%
62. CN(C)CCN(C)C(=O)c1ccc(-c2cccc(C(=O)NCCO)c2)nc1N1CCOCC1 [CBK076592]  92.5%
63. CC(=O)N1CCc2cc(C)ccc2C12CCN(CCCOc1ccccc1)CC2 [CBK081064]  92.4%
64. CC(=O)N(C)c1nc(-c2cccc(N(C)C)c2)ccc1C(=O)N(C)C [CBK076555]  92.3%
65. CCOC(=O)c1sc(-c2ccc(C(C)(C)C)cc2)nc1O [CBK078538]  92.3%
66. O=C(Nc1nnc(C(F)(F)F)s1)c1ccc(F)c(Cl)c1 [CBK076831]  92.2%
67. CN1CCN(C(=O)c2ccc(-c3cccc(C(=O)NCCO)c3)nc2N(C)C)CC1 [CBK076581]  91.8%
68. COc1cc(NC(=O)c2ccco2)c(C(=O)O)cc1OC [CBK076926]  91.6%
69. O=C(O)C1CCCCN1S(=O)(=O)c1ccc(Cl)cc1 (centres unmarked) [CBK077418]  91.6%
70. CC(=O)NCCNC(=O)c1ccc(-c2ccccc2)nc1NCCc1ccccn1 [CBK076595]  91.3%
71. CCC1CCCCN1C(=O)c1ccnc(C)c1 (centres unmarked) [CBK081093]  91.3%
72. c1ncc(OC2CCNC2)nc1OCCN1CCOCC1 (centres unmarked) [CBK077311T]  91.2%
73. CC(C)(C)c1ccc(C(=O)CC(C(=O)O)N2CCN(c3cccc(Cl)c3)CC2)cc1 (centres unmarked) [CBK077385]  90.9%
74. COC(=O)c1ccc(C)c(NS(=O)(=O)c2cc(Cl)ccc2Cl)c1 [CBK077971]  90.9%
75. CC(C)C1SC(=NC2CC3CCC2C3)N(C)C1=O (centres unmarked) [CBK076727]  90.6%
76. COc1ccc(/C=C(\NC(C)=O)C(=O)N2CCNCC2)cc1 [CBK077408]  90.5%
77. CN(C)c1ncc(Br)cc1C(=O)NCCNS(=O)(=O)c1ccccc1 [CBK076504]  89.4%
78. O=C1Nc2ccccc2/C1=C/c1ccc(-c2cccc(C(=O)O)c2)o1 [CBK077952]  89.4%
79. O=C(NC(=O)c1ccc(F)c(Cl)c1)Nc1nnc(C(F)(F)F)s1 [CBK076830]  88.6%
80. COc1ccc(-c2cnc(NS(C)(=O)=O)c(C(=O)Nc3cc(C)nn3C)c2)cc1 [CBK076528]  88.2%
81. CN(c1ncc(-c2ccccc2)cc1C(=O)NCc1ccco1)S(C)(=O)=O [CBK076506]  86.3%
82. COCCNC(=O)c1cc(-c2ccccc2)cnc1N(C)S(C)(=O)=O [CBK076484]  85.8%
83. CSc1ccc(-c2cnc3nc(N)ccc3c2)cc1 [CBK081169]  85.2%
84. CCOC(=O)c1sc(-c2cccc(C)n2)nc1O [CBK081083]  84.5%
85. CC(C)CNc1nnc(-c2ccccc2[N+](=O)[O-])s1 [CBK076755]  82.1%
86. COc1ccc([C@@]23CC[C@@H](NC(=O)c4ccc(Br)c(C)c4)C[C@@H]2N(C)CC3)cc1OC [CBK076656T]  81.2%
